Reference: ChEMBL document CHEMBL4219180, “Dibenzofuran, dibenzothiophene and N-methyl carbazole tethered 2-aminothiazoles and their cinnamamides as potent inhibitors of Mycobacterium tuberculosis” (Bioorg Med Chem Lett, 2018)
≈ marks a conversion by molar mass, not a printed value.

What was measured:
[1] = tested on: Mycobacterium tuberculosis; assay: Antimycobacterial activity against Mycobacterium tuberculosis H37Rv ATCC 27294 after 28 days by agar dilution method; assay type: functional; details: H37Rv ATCC 27294, 672 h
[2] = Growth inhibition of HEK293T cells at 50 ug/ml after 72 hrs by MTT assay; assay type: cell-based, HEK-293T; details: human, read-out: GI
[3] = tested on: Mycobacterium tuberculosis; assay: Antimycobacterial activity against Mycobacterium tuberculosis; assay type: functional

SMILES | MIC [1] [µg/mL] | inhibition at 72 h, 50 ug/ml [2] [%] | MIC [3] [µg/mL]
Cc1ccc(/C=C/C(=O)Nc2nc(-c3ccc4c(c3)c3ccccc3n4C)cs2)cc1 | 25 (≈ 59 µM) | 19.4 | –
Cn1c2ccccc2c2cc(-c3csc(NC(=O)/C=C/c4ccccc4)n3)ccc21 | 50 (≈ 122 µM) | 14.3 | –
Cc1ccc(/C=C/C(=O)Nc2nc(-c3ccc4sc5ccccc5c4c3)cs2)cc1 | 50 (≈ 117 µM) | 48 | –
Cn1c2ccccc2c2cc(-c3csc(NC(=O)/C=C/c4ccc(Br)cc4)n3)ccc21 | 0.78 (≈ 1.6 µM) | 12.1 | –
O=C(/C=C/c1ccc(Br)cc1)Nc1nc(-c2ccc3sc4ccccc4c3c2)cs1 | 6.25 (≈ 12.7 µM) | 28.3 | –
Nc1nc(-c2ccc3sc4ccccc4c3c2)cs1 | 1.56 (≈ 5.52 µM) | 56.7 | –
CC(=O)C1=C(O)C=C2Oc3c(C(C)=O)c(O)c(C)c(O)c3C2(C)C1=O (stereo not given) | – | – | 12.5 (≈ 36.3 µM)
CC(C)c1ccc(/C=C/C(=O)Nc2nc(-c3ccc4c(c3)c3ccccc3n4C)cs2)cc1 | 50 (≈ 111 µM) | 62 | –
O=C(/C=C/c1ccc(F)cc1)Nc1nc(-c2ccc3sc4ccccc4c3c2)cs1 | 0.78 (≈ 1.81 µM) | 57.2 | –
CC[C@@H](CO)NCCN[C@@H](CC)CO [ETHAMBUTOL] | 3.13 (≈ 15.3 µM) | – | –
O=C(/C=C/c1ccc(F)cc1)Nc1nc(-c2ccc3oc4ccccc4c3c2)cs1 | 50 (≈ 121 µM) | 36.8 | –
CC(C)c1ccc(/C=C/C(=O)Nc2nc(-c3ccc4oc5ccccc5c4c3)cs2)cc1 | 6.25 (≈ 14.3 µM) | 42.2 | –
Cc1ccc(/C=C/C(=O)Nc2nc(-c3ccc4oc5ccccc5c4c3)cs2)cc1 | 50 (≈ 122 µM) | 51.3 | –
Nc1nc(-c2ccc3oc4ccccc4c3c2)cs1 | 1.56 (≈ 5.86 µM) | 48.1 | –
O=C(/C=C/c1ccccc1)Nc1nc(-c2ccc3sc4ccccc4c3c2)cs1 | 50 (≈ 121 µM) | 68.6 | –
O=C(/C=C/c1ccc(Br)cc1)Nc1nc(-c2ccc3oc4ccccc4c3c2)cs1 | 12.5 (≈ 26.3 µM) | 68.6 | –
O=C(/C=C/c1ccccc1)Nc1nc(-c2ccc3oc4ccccc4c3c2)cs1 | 50 (≈ 126 µM) | 52.6 | –
CC(C)c1ccc(/C=C/C(=O)Nc2nc(-c3ccc4sc5ccccc5c4c3)cs2)cc1 | 0.78 (≈ 1.72 µM) | 43.1 | –
Cn1c2ccccc2c2cc(-c3csc(N)n3)ccc21 | 12.5 (≈ 44.7 µM) | 38.1 | –
NC(=O)c1cnccn1 [PYRAZINAMIDE] | 50 (≈ 406 µM) | – | –
NNC(=O)c1ccncc1 [ISONIAZID] | 0.1 (≈ 0.729 µM) | – | –
Cn1c2ccccc2c2cc(-c3csc(NC(=O)/C=C/c4ccc(F)cc4)n3)ccc21 | 50 (≈ 117 µM) | 23.8 | –
